Structures can show the parent of a compound that is named as a salt.
Molecular target: T1, human TRPV4 (Homo sapiens, UniProt Q9HBA0)
T1 construct: expressed in transfected cells; host or cells: BHK/AC9 cells transduced with BacMam virus
Experiment: FLIPR assay for hTRPV4 expressed in BHK cells: inhibition of Agonist Compound-induced calcium signal
Type: cell-based
Conditions: not given
Summary of the method: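 BHK/AC9 cells transduced with BacMam human TRPV4 (MOI 78), plated 15,000 per well and cultured 24 h at 37° C. Loaded with 2 μM Fluo-4 AM plus 500 μM Brilliant Black in HBSS for 1-1.5 h at room temperature in the dark; intracellular calcium signal read by FLIPR fluorescence.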

T1 sequence (Q9HBA0 whole entry): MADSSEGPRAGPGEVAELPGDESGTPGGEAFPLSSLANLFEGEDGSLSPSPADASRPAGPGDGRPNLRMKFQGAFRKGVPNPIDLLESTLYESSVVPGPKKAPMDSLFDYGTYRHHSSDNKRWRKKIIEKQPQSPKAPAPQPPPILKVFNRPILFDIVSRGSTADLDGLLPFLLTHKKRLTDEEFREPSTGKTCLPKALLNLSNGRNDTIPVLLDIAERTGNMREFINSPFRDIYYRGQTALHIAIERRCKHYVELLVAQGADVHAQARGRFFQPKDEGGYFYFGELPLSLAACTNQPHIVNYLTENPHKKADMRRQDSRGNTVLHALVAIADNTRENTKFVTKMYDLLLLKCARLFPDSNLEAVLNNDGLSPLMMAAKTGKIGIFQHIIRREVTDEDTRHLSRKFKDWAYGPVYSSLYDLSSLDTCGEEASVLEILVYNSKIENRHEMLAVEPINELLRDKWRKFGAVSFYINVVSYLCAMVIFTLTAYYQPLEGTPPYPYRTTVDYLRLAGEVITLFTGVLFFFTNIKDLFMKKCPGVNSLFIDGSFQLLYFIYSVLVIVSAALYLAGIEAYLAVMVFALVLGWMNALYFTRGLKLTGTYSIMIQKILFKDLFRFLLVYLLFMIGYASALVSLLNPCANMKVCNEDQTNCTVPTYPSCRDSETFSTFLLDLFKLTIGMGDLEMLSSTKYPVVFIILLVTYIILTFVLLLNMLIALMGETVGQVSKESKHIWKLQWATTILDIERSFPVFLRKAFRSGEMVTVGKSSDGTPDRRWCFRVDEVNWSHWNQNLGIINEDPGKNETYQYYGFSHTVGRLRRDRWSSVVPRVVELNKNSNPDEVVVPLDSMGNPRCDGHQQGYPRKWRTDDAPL

Row | Structure (SMILES) | IC50 [nM]
1 | C[C@@H](O)[C@]1(O)CN(S(=O)(=O)c2ccc(Cl)cn2)C[C@@H]1Oc1ccc(C#N)c(F)c1 [Example 195] | 0.1 to 10

Same assay, conditions: hTRPV4 in BHK/AC9 cells, FLIPR calcium signal, agonist at EC80; reported as range class; read-out: IC50

Row | IC50 [nM] | Structure (SMILES)
2 | 100 to 1000 | N#Cc1ccc(O[C@H]2CN(S(=O)(=O)c3ccc(C(F)(F)F)nc3)C[C@@]2(O)CO)cc1F [Example 5, 2-fluoro-4-(((3S,4R)-4-hydroxy-4-(hydroxymethyl)-1-((6-(trifluoromethyl)pyridin-3-yl)sulfonyl)pyrrolidin-3-yl)oxy)benzonitrile]
3 | 0.1 to 10 | CC[C@@H](O)[C@]1(O)CN(S(=O)(=O)c2ccc(Cl)cn2)C[C@@H]1Oc1ccc(C#N)c(F)c1 [Example 196, 4-(((3S,4R)-1-((5-chloropyridin-2-yl)sulfonyl)-4-hydroxy-4-((R)-1-hydroxypropyl)pyrrolidin-3-yl)oxy)-2-fluorobenzonitrile]
4 | 0.1 to 10 | N#Cc1ccc(S(=O)(=O)N2C[C@H](Oc3ccc(C#N)c(F)c3)[C@](O)(CO)C2)c(Cl)c1 [Example 97, 4-(((3S,4R)-1-((2-chloro-4-cyanophenyl)sulfonyl)-4-hydroxy-4-(hydroxymethyl)pyrrolidin-3-yl)oxy)-2-fluorobenzonitrile]
5 | 10 to 100 | N#Cc1cccc(O[C@H]2CN(S(=O)(=O)c3ccc(C(F)(F)F)cc3C#N)C[C@@]2(O)CO)c1 [Example 53, 2-(((3R,4S)-4-(3-cyanophenoxy)-3-hydroxy-3-(hydroxymethyl)pyrrolidin-1-yl)sulfonyl)-5-(trifluoromethyl)benzonitrile]
6 | 10 to 100 | N#Cc1cc(C(F)(F)F)ccc1S(=O)(=O)N1C[C@H](Oc2ccc(F)c(C(F)(F)F)c2)[C@](O)(CO)C1 [Example 38, 2-(((3R,4S)-4-(4-fluoro-3-(trifluoromethyl)phenoxy)-3-hydroxy-3-(hydroxymethyl)pyrrolidin-1-yl)sulfonyl)-5-(trifluoromethyl)benzonitrile]
7 | 10 to 100 | N#Cc1cc(C(F)(F)F)ccc1S(=O)(=O)N1C[C@H](Oc2ccccc2)[C@](O)(CO)C1 [Example 46, 2-(((3R,4S)-3-hydroxy-3-(hydroxymethyl)-4-phenoxypyrrolidin-1-yl)sulfonyl)-5-(trifluoromethyl)benzonitrile]
8 | 0.1 to 10 | N#Cc1ccc(O[C@H]2CN(S(=O)(=O)c3ccc(Cl)nc3Cl)C[C@@]2(O)CO)cc1F [Example 92, 4-(((3S,4R)-1-((2,6-dichloropyridin-3-yl)sulfonyl)-4-hydroxy-4-(hydroxymethyl)pyrrolidin-3-yl)oxy)-2-fluorobenzonitrile]
9 | 10 to 100 | C[C@@H](O)[C@]1(O)CN(S(=O)(=O)c2ccc(OC(F)(F)F)nc2)C[C@@H]1Oc1ccc(C#N)c(F)c1 [Example 208, 2-fluoro-4-(((3S,4R)-4-hydroxy-4-((R)-1-hydroxyethyl)-1-((6-(trifluoromethoxy)pyridin-3-yl)sulfonyl)pyrrolidin-3-yl)oxy)benzonitrile]
10 | 0.1 to 10 | N#Cc1ccc(O[C@H]2CN(S(=O)(=O)c3ccc(C(F)(F)F)cc3C#N)C[C@@]2(O)CO)c(OC2CC2)c1 [Example 45, 2-(((3R,4S)-4-(4-cyano-2-cyclopropoxyphenoxy)-3-hydroxy-3-(hydroxymethyl)pyrrolidin-1-yl)sulfonyl)-5-(trifluoromethyl)benzonitrile]
11 | 10 to 100 | N#Cc1ccc(O[C@H]2CN(S(=O)(=O)c3ccc(I)cc3)C[C@@]2(O)CO)cc1F [Example 103, 2-fluoro-4-(((3S,4R)-4-hydroxy-4-(hydroxymethyl)-1-((4-iodophenyl)sulfonyl)pyrrolidin-3-yl)oxy)benzonitrile]
12 | 0.1 to 10 | Cc1ccc(S(=O)(=O)N2C[C@H](Oc3ccc(C#N)c(F)c3)[C@](O)(CO)C2)c(Cl)c1 [Example 78, 4-(((3S,4R)-1-((2-chloro-4-methylphenyl)sulfonyl)-4-hydroxy-4-(hydroxymethyl)pyrrolidin-3-yl)oxy)-2-fluorobenzonitrile]
13 | 10 to 100 | N#Cc1cc(OCC(F)(F)F)c(O[C@H]2CN(S(=O)(=O)c3ccc(Cl)cn3)C[C@]2(O)CO)cc1F [Example 215, 4-(((3S,4S)-1-((5-chloropyridin-2-yl)sulfonyl)-4-hydroxy-4-(hydroxymethyl)pyrrolidin-3-yl)oxy)-2-fluoro-5-(2,2,2-trifluoroethoxy)benzonitrile]
14 | 10 to 100 | N#Cc1ccc(O[C@H]2CN(S(=O)(=O)c3ccc(OC(F)(F)F)nc3)C[C@@]2(O)CN)cc1F [Example 249, 4-(((3S,4S)-4-(aminomethyl)-4-hydroxy-1-((6-(trifluoromethoxy)pyridin-3-yl)sulfonyl)pyrrolidin-3-yl)oxy)-2-fluorobenzonitrile, Hydrochloride]
15 | 0.1 to 10 | N#Cc1ccc(O[C@H]2CN(S(=O)(=O)c3ccc(OC(F)(F)F)cc3Br)C[C@@]2(O)CO)cc1F [Example 65, 4-(((3S,4R)-1-((2-bromo-4-(trifluoromethoxy)phenyl)sulfonyl)-4-hydroxy-4-(hydroxymethyl)pyrrolidin-3-yl)oxy)-2-fluorobenzonitrile]
16 | 10 to 100 | Cc1nc(C(F)(F)F)c(S(=O)(=O)N2C[C@H](Oc3ccc(C#N)c(F)c3)[C@](O)(CO)C2)s1 [Example 87, 2-fluoro-4-(((3S,4R)-4-hydroxy-4-(hydroxymethyl)-1-((2-methyl-4-(trifluoromethyl)thiazol-5-yl)sulfonyl)pyrrolidin-3-yl)oxy)benzonitrile]
17 | 0.1 to 10 | N#Cc1ccc(O[C@H]2CN(S(=O)(=O)c3ccc(Cl)cc3C#N)C[C@]2(O)CNCCO)cc1F [Example 236, 4-(((3S,4R)-1-((4-chloro-2-cyanophenyl)sulfonyl)-4-hydroxy-4-(((2-hydroxyethyl)amino)methyl)pyrrolidin-3-yl)oxy)-2-fluorobenzonitrile, 2,2,2-trifluoroacetate]
18 | 0.1 to 10 | N#Cc1cc(Cl)ccc1S(=O)(=O)N1C[C@H](Oc2ccc(Cl)cc2)[C@@](O)(CO)C1 [Example 151, 5-chloro-2-(((3S,4S)-4-(4-chlorophenoxy)-3-hydroxy-3-(hydroxymethyl)pyrrolidin-1-yl)sulfonyl)benzonitrile]
19 | 10 to 100 | C[C@@H](O)[C@]1(O)CN(S(=O)(=O)c2ccc(OC(F)F)nc2)C[C@@H]1Oc1ccc(C#N)c(F)c1 [Example 213, 4-(((3S,4R)-1-((6-(difluoromethoxy)pyridin-3-yl)sulfonyl)-4-hydroxy-4-((R)-1-hydroxyethyl)pyrrolidin-3-yl)oxy)-2-fluorobenzonitrile]
20 | 0.1 to 10 | N#Cc1cc(O)c(O[C@H]2CN(S(=O)(=O)c3ccc(C(F)(F)F)cc3C#N)C[C@@]2(O)CO)cc1F [Example 162, 4-(((3S,4R)-1-((2-cyano-4-(trifluoromethyl)phenyl)sulfonyl)-4-hydroxy-4-(hydroxymethyl)pyrrolidin-3-yl)oxy)-2-fluoro-5-hydroxybenzonitrile]
21 | 10 to 100 | N#Cc1ccc(S(=O)(=O)N2C[C@H](Oc3ccc(C#N)c(F)c3)[C@](O)(CO)C2)c(C(F)(F)F)c1 [Example 68, 4-(((3S,4R)-1-((4-cyano-2-(trifluoromethyl)phenyl)sulfonyl)-4-hydroxy-4-(hydroxymethyl)pyrrolidin-3-yl)oxy)-2-fluorobenzonitrile]
22 | 10 to 100 | N#Cc1ccccc1S(=O)(=O)N1C[C@H](Oc2ccc(C(F)(F)F)cc2)[C@](O)(CO)C1 [Example 56, 2-(((3R,4S)-3-hydroxy-3-(hydroxymethyl)-4-(4-(trifluoromethyl)phenoxy)pyrrolidin-1-yl)sulfonyl)benzonitrile]

From patent publication US11229623B2 (GlaxoSmithKline Intellectual Property (No.2) Limited, priority 2016, dated 2022)
